{"source": "patent US12459919B2", "about": "“Polymorphic forms of (R)-4-(1-((3-(difluoromethyl)-1-methyl-1H-pyrazol-4-yl)sulfonyl)-1- fluoroethyl)-N-(isoxazol-3-yl)piperidine-1-carboxamide” (MyoKardia, Inc., priority 2019, dated 2025)", "key": {"bovine cardiac myosin": {"molecular_target": "bovine cardiac myosin (Bos taurus, UniProt Q9BE39)", "sequence (Q9BE39 whole entry)": "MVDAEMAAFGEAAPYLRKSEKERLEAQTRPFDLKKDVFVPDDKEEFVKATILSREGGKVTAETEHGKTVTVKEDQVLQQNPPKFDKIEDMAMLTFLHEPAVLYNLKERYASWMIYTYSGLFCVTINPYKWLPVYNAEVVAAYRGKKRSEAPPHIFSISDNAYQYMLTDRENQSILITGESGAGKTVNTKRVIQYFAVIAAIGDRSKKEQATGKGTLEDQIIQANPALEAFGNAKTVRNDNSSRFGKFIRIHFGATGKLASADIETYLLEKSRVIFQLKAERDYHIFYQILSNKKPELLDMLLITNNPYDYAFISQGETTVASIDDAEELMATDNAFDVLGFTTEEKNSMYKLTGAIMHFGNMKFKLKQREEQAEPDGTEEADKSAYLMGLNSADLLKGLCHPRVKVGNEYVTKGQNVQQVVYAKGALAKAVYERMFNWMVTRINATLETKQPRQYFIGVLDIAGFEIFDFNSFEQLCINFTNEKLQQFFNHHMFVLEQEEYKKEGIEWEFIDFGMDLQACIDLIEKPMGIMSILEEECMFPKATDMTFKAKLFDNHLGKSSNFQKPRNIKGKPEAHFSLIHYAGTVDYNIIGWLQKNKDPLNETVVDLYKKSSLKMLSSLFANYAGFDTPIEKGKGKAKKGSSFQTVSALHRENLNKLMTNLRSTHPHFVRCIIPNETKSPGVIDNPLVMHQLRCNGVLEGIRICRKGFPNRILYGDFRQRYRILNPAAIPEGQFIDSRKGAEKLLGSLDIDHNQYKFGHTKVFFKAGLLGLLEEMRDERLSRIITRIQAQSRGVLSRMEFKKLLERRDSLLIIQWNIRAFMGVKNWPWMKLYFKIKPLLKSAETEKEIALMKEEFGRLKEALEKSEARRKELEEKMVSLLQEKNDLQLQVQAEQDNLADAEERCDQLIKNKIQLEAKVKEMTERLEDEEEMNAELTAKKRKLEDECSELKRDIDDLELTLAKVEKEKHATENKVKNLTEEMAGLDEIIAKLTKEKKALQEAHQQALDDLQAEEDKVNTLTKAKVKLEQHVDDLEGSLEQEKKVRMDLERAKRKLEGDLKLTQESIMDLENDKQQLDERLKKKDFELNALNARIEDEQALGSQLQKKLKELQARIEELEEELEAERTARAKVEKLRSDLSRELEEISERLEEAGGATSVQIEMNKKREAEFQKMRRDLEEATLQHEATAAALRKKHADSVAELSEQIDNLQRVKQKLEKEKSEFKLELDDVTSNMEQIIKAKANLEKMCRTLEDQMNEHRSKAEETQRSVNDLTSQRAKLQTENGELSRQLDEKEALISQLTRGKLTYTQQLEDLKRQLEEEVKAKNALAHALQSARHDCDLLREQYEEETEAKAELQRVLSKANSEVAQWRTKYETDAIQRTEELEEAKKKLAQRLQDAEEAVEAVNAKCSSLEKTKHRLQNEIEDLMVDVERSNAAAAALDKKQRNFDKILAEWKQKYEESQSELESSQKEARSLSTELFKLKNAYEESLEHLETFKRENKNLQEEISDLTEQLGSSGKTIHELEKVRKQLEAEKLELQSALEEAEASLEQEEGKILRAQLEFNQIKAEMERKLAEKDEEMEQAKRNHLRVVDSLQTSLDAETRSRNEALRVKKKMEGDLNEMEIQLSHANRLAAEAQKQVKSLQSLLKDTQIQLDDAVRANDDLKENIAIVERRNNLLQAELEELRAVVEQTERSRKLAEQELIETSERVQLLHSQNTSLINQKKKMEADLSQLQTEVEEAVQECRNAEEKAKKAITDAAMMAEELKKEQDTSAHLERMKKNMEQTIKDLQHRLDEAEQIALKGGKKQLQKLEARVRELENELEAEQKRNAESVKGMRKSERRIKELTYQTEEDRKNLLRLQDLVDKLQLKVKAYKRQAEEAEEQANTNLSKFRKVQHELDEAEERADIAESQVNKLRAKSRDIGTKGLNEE", "sequence (P85100 whole entry partner)": "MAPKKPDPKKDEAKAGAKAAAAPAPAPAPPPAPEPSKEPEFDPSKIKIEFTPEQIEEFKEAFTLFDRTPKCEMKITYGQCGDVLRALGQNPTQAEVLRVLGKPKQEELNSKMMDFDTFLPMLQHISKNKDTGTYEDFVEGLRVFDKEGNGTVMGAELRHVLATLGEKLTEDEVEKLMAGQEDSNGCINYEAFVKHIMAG", "sequence (Q3SZE5 whole entry partner)": "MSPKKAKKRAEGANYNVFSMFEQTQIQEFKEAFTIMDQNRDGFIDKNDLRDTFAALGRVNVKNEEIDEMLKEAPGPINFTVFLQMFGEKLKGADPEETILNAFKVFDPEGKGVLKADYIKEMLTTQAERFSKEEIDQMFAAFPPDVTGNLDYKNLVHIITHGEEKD", "assay": "Myosin activation assay (PK/LDH-coupled ATPase, skinned myofibrils)", "assay_type": "biochemical", "conditions": "concentration at which total response is increased by twenty percent", "description": "Small molecule agents were assessed for their ability to activate the enzymatic activity of bovine cardiac myosin using a biochemical assay that couples the release of ADP (adenosine diphosphate) from cardiac myosin to an enzymatic coupling system consisting of pyruvate kinase and lactate dehydrogenase (PK/LDH) and monitoring the absorbance decrease of NADH (at 340 nm) as a function of time. PK converts ADP to ATP (adenosine triphosphate) by converting PEP (phosphoenolpyruvate) to pyruvate. Pyruvate is then converted to lactate by LDH by converting NADH (nicotinamide adenine dinucleotide) to NAD (oxidized nicotinamide adenine dinucleotide). […] Prior to testing small molecule agents, the bovine myofibrils were assessed for their calcium responsiveness and the calcium concentration that achieves either a 50% (pCa50 or pCa=˜6) or <5% (pCa=10) activation of the myofibril system was chosen as the final condition for assessing the activation activity of the small molecule agents. […]\nA dilution series of compound was created in DMSO such that the final desired concentration of compound would be achieved in a volume of […] with a fixed DMSO concentration of 3.3% (v/v). […] The reaction progress was followed in a PerkinElmer Envision plate reader at ambient temperature using clear bottom plates. The plate reader was configured to read absorbance at 340 nm in kinetics mode for 15 minutes. […]"}, "[1]": {"test_system": "adult rat ventricular myocytes", "assay": "Cardiomyocyte contractility assay (fractional shortening, IonOptix)", "assay_type": "cell-based", "conditions": "5 minutes perfusion, 1 Hz pacing", "description": "Contractility of adult rat ventricular myocytes is determined by edge detection with an IonOptix contractility system. Aliquots of myocytes in Tyrode buffer (137 mM NaCl, 3.7 mM KCl, 0.5 mM MgCl2, 1.5 mM CaCl2, 4 mM HEPES, 11 mM glucose) are placed in a perfusion chamber (Series 20 RC-27NE; Warner Instruments), allowed to adhere to the coverslip, and then perfused with 37° C. Tyrode buffer. Myocytes are filed stimulated at 1 Hz and 10V. Only myocytes with clear striations, quiescent prior to pacing, with a cell length of 120-180 microns, a basal fractional shortening equal to 3-8% of the cell length, and a contraction velocity greater than 100 microns per second are used for contractility experiments. To determine the response to compounds, myocytes are first perfused for 60 seconds with Tyrodes buffer followed by 5 minutes of compound and a 140 second washout with Tyrodes buffer. Data is continuously recorded using IonOptix software. Contractility data is analyzed using Ionwizard software (IonOptix). For each cell, 10-20 contractility transients were averaged and compared under basal (no compound) and compound-treated conditions. Compound activity is measured by effects on fractional shortening (FS), where fractional shortening is the ratio of the peak length of the cell at contraction divided by the basal cell length normalized to 100% for an untreated cell."}, "[2]": {"assay": "DVS isotherm (hygroscopicity)", "assay_type": "physicochemical"}, "[3]": {"assay": "Polymorph relative stability, interconversion slurring experiments", "assay_type": "physicochemical"}}, "data": [{"compound": "Cn1cc(S(=O)(=O)[C@@](C)(F)C2CCN(C(=O)Nc3ccon3)CC2)c(C(F)F)n1", "note": "[Form A, (R)-4-(1-((3-(difluoromethyl)-1-methyl-1H-pyrazol-4-yl)sulfonyl)-1-fluoroethyl)-N-(isoxazol-3-yl)piperidine-1-carboxamide]", "values": [{"measurement": "Myosin Activation (AC20)", "setting": "bovine cardiac myosin", "result": "+++ (myosin activation value AC20 < 2 μM)"}, {"measurement": "Activity at 3.0 uM (fractional shortening activation over basal)", "setting": "[1]; 3.0 uM compound", "result": "+ (fractional shorting activation <20% over basal)"}, {"measurement": "Activity at 10 uM (fractional shortening activation over basal)", "setting": "[1]; 10 uM compound", "result": "++ (fractional shorting activation values from 20% to 50% over basal)"}, {"measurement": "Hygroscopic character (DVS isotherm)", "setting": "[2]", "result": "non-hygroscopic"}]}, {"compound": "Cn1cc(S(=O)(=O)[C@@](C)(F)C2CCN(C(=O)Nc3ccon3)CC2)c(C(F)F)n1", "note": "[Form B, (R)-4-(1-((3-(difluoromethyl)-1-methyl-1H-pyrazol-4-yl)sulfonyl)-1-fluoroethyl)-N-(isoxazol-3-yl)piperidine-1-carboxamide]", "values": [{"measurement": "Hygroscopic character (DVS isotherm)", "setting": "[2]", "result": "nonhygroscopic"}, {"measurement": "Relative stability of polymorphs", "setting": "[3]; 1:1 (w/w) forms A+εD and B slurried 18 hours in acetonitrile and water mixture, range of RT to 70° C.", "result": "more stable compared to Form A"}, {"measurement": "Polymorph stability ranking", "setting": "[3]; compared to Form A, Form C, and Form D", "result": "most stable polymorph"}]}]}
